Source: patent US10448639B2, “Fungicidal pyrazoles” (FMC CORPORATION, priority 2009, dated 2019)

Experiments:
[1] = tested on: Puccinia recondita f. sp. tritici; assay: Test H: wheat leaf rust, curative spray on inoculated wheat seedlings, visual disease rating
Source text: (§1) General protocol for preparing test suspensions for Tests A-J: the test compounds were first dissolved in acetone in an amount equal to 3% of the final volume and then suspended at the desired concentration (in ppm) in acetone and purified water (50/50 mix by volume) containing 250 ppm of the surfactant Trem® 014 (polyhydric alcohol esters). The resulting test suspensions were then used in Tests A-J. Spraying a 200 ppm test suspension to the point of run-off on the test plants was the equivalent of a rate of 500 g/ha. Unless otherwise indicated, the rating values indicate a 200 ppm test suspension was used. (An asterisk “*” next to the rating value indicates a 40 ppm test suspension was used.)
Wheat seedlings were inoculated with a spore suspension of Puccinia recondita f. sp. tritici (the causal agent of wheat leaf rust) and incubated in a saturated atmosphere at 20° C. for 24 h, and then moved to a growth chamber at 20° C. for 2 days. At the end of this time the test suspension was sprayed to the point of run-off, and then the seedlings were moved to a growth chamber at 20° C. for 6 days after which time visual disease ratings were made.

[2] = tested on: Puccinia recondita f. sp. tritici; assay: Test I: wheat leaf rust, preventive spray on wheat seedlings, visual disease rating
[3] = tested on: Septoria tritici; assay: Test G: wheat leaf blotch, preventive spray on wheat seedlings, visual disease rating
[4] = tested on: Septoria nodorum; assay: Test F: Septoria glume blotch, preventive spray on wheat seedlings, visual disease rating
[5] = tested on: Alternaria solani; assay: Test C: tomato early blight, preventive spray on tomato seedlings, visual disease rating
[6] = tested on: Erysiphe graminis f sp. tritici; assay: Test J: wheat powdery mildew, preventive spray on wheat seedlings, visual disease rating
Source text: as §1
The test suspension was sprayed to the point of run-off on wheat seedlings. The following day the seedlings were inoculated with a spore dust of Erysiphe graminis f sp. tritici, (the causal agent of wheat powdery mildew) and incubated in a growth chamber at 20° C. for 8 days, after which time visual disease ratings were made.

[7] = tested on: Botrytis cinerea; assay: Test B: tomato Botrytis, preventive spray on tomato seedlings, visual disease rating
Source text: as §1
The test suspension was sprayed to the point of run-off on tomato seedlings. The following day the seedlings were inoculated with a spore suspension of Botrytis cinerea (the causal agent of tomato Botrytis) and incubated in saturated atmosphere at 20° C. for 48 h, and then moved to a growth chamber at 24° C. for 3 additional days, after which time visual disease ratings were made.

[8] = wheat leaf rust, curative, 100 = 100% disease control, 0 = no control relative to controls
[9] = wheat leaf rust, preventive, 100 = 100% disease control, 0 = no control relative to controls
[10] = wheat leaf blotch, 100 = 100% disease control, 0 = no control relative to controls
[11] = Septoria glume blotch, 100 = 100% disease control, 0 = no control relative to controls
[12] = tomato early blight, 100 = 100% disease control, 0 = no control relative to controls
[13] = wheat powdery mildew, 100 = 100% disease control, 0 = no control relative to controls
[14] = tomato Botrytis, 100 = 100% disease control, 0 = no control relative to controls
[15] = wheat leaf rust, curative spray, 100 = 100% disease control, 0 = no control
[16] = wheat leaf rust, preventive spray, 100 = 100% disease control, 0 = no control
[17] = wheat leaf blotch, preventive spray, 100 = 100% disease control, 0 = no control
[18] = Septoria glume blotch on wheat, preventive spray, 100 = 100% disease control, 0 = no control
[19] = tomato early blight, preventive spray, 100 = 100% disease control, 0 = no control
[20] = wheat powdery mildew, preventive spray, 100 = 100% disease control, 0 = no control
[21] = tomato Botrytis, preventive spray, 100 = 100% disease control, 0 = no control

Cc1cc(Oc2c(-c3c(F)cc(F)cc3F)c(C)nn2C)ccc1Cl [compound 157]
Test H rating (% disease control) [1, 8]: 0% | Test I rating (% disease control) [2, 9]: 54% | Test G rating (% disease control) [3, 10]: 0% | Test F rating (% disease control) [4, 11]: 0% | Test C rating (% disease control) [5, 12]: 0% | Test J rating (% disease control) [6, 13]: 73% | Test B rating (% disease control) [7, 14]: 0%

Cc1nn(C)c(Oc2ccc(Br)c(F)c2)c1-c1c(F)cc(F)cc1F [compound 130]
Test H rating (% disease control) [1, 15]: 0% | Test I rating (% disease control) [2, 16]: 19% | Test G rating (% disease control) [3, 17]: 99% | Test F rating (% disease control) [4, 18]: 0% | Test C rating (% disease control) [5, 19]: 0% | Test J rating (% disease control) [6, 20]: 0% | Test B rating (% disease control) [7, 21]: 97%

Cc1nn(C)c(Nc2ccc(F)c(Cl)c2)c1-c1c(F)cc(C#N)cc1F [compound 144]
Test H rating (% disease control) [1, 15]: 0% | Test I rating (% disease control) [2, 16]: 98% | Test G rating (% disease control) [3, 17]: 99% | Test F rating (% disease control) [4, 18]: 40% | Test C rating (% disease control) [5, 19]: 9% | Test J rating (% disease control) [6, 20]: 91% | Test B rating (% disease control) [7, 21]: 99%

COc1cc(Oc2c(-c3c(F)cc(F)cc3F)c(C)nn2C)ccc1C [compound 217]
Test H rating (% disease control) [1, 8]: 40% | Test I rating (% disease control) [2, 9]: 79% | Test G rating (% disease control) [3, 10]: 83% | Test F rating (% disease control) [4, 11]: 0% | Test C rating (% disease control) [5, 12]: 0% | Test J rating (% disease control) [6, 13]: 99% | Test B rating (% disease control) [7, 14]: 75%

COc1cc(F)c(Nc2c(-c3cccc(Cl)c3)c(C)nn2C)c(F)c1 [compound 25]
Test H rating (% disease control) [1, 15]: 0% | Test I rating (% disease control) [2, 16]: 94% | Test G rating (% disease control) [3, 17]: 100% | Test F rating (% disease control) [4, 18]: 0% | Test C rating (% disease control) [5, 19]: 0% | Test J rating (% disease control) [6, 20]: 79% | Test B rating (% disease control) [7, 21]: 100%

CCOc1cc(F)c(-c2c(C)nn(C)c2Nc2ccc(F)cc2F)c(F)c1 [compound 141]
Test H rating (% disease control) [1, 15]: 0% | Test I rating (% disease control) [2, 16]: 99% | Test G rating (% disease control) [3, 17]: 100% | Test F rating (% disease control) [4, 18]: 98% | Test C rating (% disease control) [5, 19]: 99% | Test J rating (% disease control) [6, 20]: 100% | Test B rating (% disease control) [7, 21]: 99%

COc1ccc(-c2c(C)nn(C)c2Nc2ccc(F)cc2F)c(Cl)c1 [compound 160]
Test H rating (% disease control) [1, 8]: 8% | Test I rating (% disease control) [2, 9]: 100% | Test G rating (% disease control) [3, 10]: 99% | Test F rating (% disease control) [4, 11]: 0% | Test C rating (% disease control) [5, 12]: 99% | Test J rating (% disease control) [6, 13]: 100% | Test B rating (% disease control) [7, 14]: 98%

Cc1nn(C)c(Oc2c(F)cc(C#N)cc2F)c1-c1cccnc1Cl [compound 308]
Test H disease control rating ([1]; wheat leaf rust, sprayed after inoculation, 100 = 100% disease control, 0 = no disease control relative to controls): 9% | Test I disease control rating ([2]; wheat leaf rust, sprayed the day before inoculation, 100 = 100% disease control, 0 = no disease control relative to controls): 100% | Test G disease control rating ([3]; wheat leaf blotch, sprayed the day before inoculation, 100 = 100% disease control, 0 = no disease control relative to controls): 98% | Test F disease control rating ([4]; Septoria glume blotch on wheat, 100 = 100% disease control, 0 = no disease control relative to controls): 0% | Test C disease control rating ([5]; tomato early blight, 100 = 100% disease control, 0 = no disease control relative to controls): 0% | Test J disease control rating ([6]; wheat powdery mildew, sprayed the day before inoculation, 100 = 100% disease control, 0 = no disease control relative to controls): 0% | Test B disease control rating ([7]; tomato Botrytis, 100 = 100% disease control, 0 = no disease control relative to controls): 81%

COc1ccc(Nc2c(-c3c(F)cc(C#N)cc3F)c(C)nn2C)cc1F [compound 113]
Test H rating (% disease control) [1, 15]: 8% | Test I rating (% disease control) [2, 16]: 95% | Test G rating (% disease control) [3, 17]: 100% | Test F rating (% disease control) [4, 18]: 0% | Test C rating (% disease control) [5, 19]: 47% | Test J rating (% disease control) [6, 20]: 48% | Test B rating (% disease control) [7, 21]: 99%

Cc1nn(C)c(Oc2ccc(Cl)cn2)c1-c1c(F)cc(F)cc1F [compound 39]
Test H rating (% disease control) [1, 15]: 99% | Test I rating (% disease control) [2, 16]: 99% | Test G rating (% disease control) [3, 17]: 99% | Test F rating (% disease control) [4, 18]: 0% | Test C rating (% disease control) [5, 19]: 99% | Test J rating (% disease control) [6, 20]: 99% | Test B rating (% disease control) [7, 21]: 100%

Cc1nn(C)c(Nc2ccc(Cl)cc2)c1-c1ccc(F)cc1F [compound 195]
Test H rating (% disease control) [1, 8]: 0% | Test I rating (% disease control) [2, 9]: 98% | Test G rating (% disease control) [3, 10]: 100% | Test F rating (% disease control) [4, 11]: 60% | Test C rating (% disease control) [5, 12]: 97% | Test J rating (% disease control) [6, 13]: 97% | Test B rating (% disease control) [7, 14]: 100%

Cc1cc(F)ccc1-c1c(C)nn(C)c1Oc1c(F)cc(C#N)cc1F [compound 97]
Test H rating (% disease control) [1, 15]: 0% | Test I rating (% disease control) [2, 16]: 99% | Test G rating (% disease control) [3, 17]: 100% | Test F rating (% disease control) [4, 18]: 95% | Test C rating (% disease control) [5, 19]: 99% | Test J rating (% disease control) [6, 20]: 99% | Test B rating (% disease control) [7, 21]: 100%

Cc1ccc(Oc2c(-c3c(F)cc(F)cc3F)c(C)nn2C)cc1C [compound 209]
Test H rating (% disease control) [1, 8]: 0% | Test I rating (% disease control) [2, 9]: 0% | Test G rating (% disease control) [3, 10]: 0% | Test F rating (% disease control) [4, 11]: 0% | Test C rating (% disease control) [5, 12]: 0% | Test J rating (% disease control) [6, 13]: 97% | Test B rating (% disease control) [7, 14]: 0%

Cc1nn(C)c(Oc2ccc(C#N)cc2Cl)c1-c1ccc(F)cc1Cl [Compound 139, 3-chloro-4-[[4-(2-chloro-4-fluorophenyl)-1,3-dimethyl-1H-pyrazol-5-yl]oxy]benzonitrile]
pest or weed control at 200 µg/mL ([1]; 144 h, read-out: Test H rating (% disease control)): 69% | pest or weed control at 200 µg/mL ([2]; 192 h, read-out: Test I rating (% disease control)): 99% | pest or weed control at 200 µg/mL ([3]; Zymoseptoria tritici, in Triticum aestivum, 504 h, read-out: Test G rating (% disease control)): 100% | pest or weed control at 200 µg/mL ([4]; Parastagonospora nodorum, in Triticum aestivum, 192 h, read-out: Test F rating (% disease control)): 100% | pest or weed control at 200 µg/mL ([5]; Alternaria solani, in Solanum lycopersicum, 168 h, read-out: Test C rating (% disease control)): 86% | pest or weed control at 200 µg/mL ([6]; Blumeria graminis, in Triticum aestivum, 192 h, read-out: Test J rating (% disease control)): 100% | pest or weed control at 200 µg/mL ([7]; Botrytis cinerea, in Solanum lycopersicum, 120 h, read-out: Test B rating (% disease control)): 100%

Cc1nn(C)c(Nc2ccc(Cl)cc2Cl)c1-c1ccc(F)cc1F [compound 243]
Test H rating (% disease control) [1, 8]: 0% | Test I rating (% disease control) [2, 9]: 97% | Test G rating (% disease control) [3, 10]: 100% | Test F rating (% disease control) [4, 11]: 0% | Test C rating (% disease control) [5, 12]: 64% | Test J rating (% disease control) [6, 13]: 100% | Test B rating (% disease control) [7, 14]: 100%

Cc1nn(C)c(Nc2c(F)cc(F)cc2F)c1-c1c(F)cc(C#N)cc1F [compound 133]
Test H rating (% disease control) [1, 15]: 0% | Test I rating (% disease control) [2, 16]: 100% | Test G rating (% disease control) [3, 17]: 99% | Test F rating (% disease control) [4, 18]: 60% | Test C rating (% disease control) [5, 19]: 100% | Test J rating (% disease control) [6, 20]: 94% | Test B rating (% disease control) [7, 21]: 100%

COc1ccc(Nc2c(-c3ccc(Cl)cc3Cl)c(C)nn2C)c(OC)c1 [compound 57]
Test H rating (% disease control) [1, 15]: 85% | Test I rating (% disease control) [2, 16]: 85% | Test G rating (% disease control) [3, 17]: 94% | Test F rating (% disease control) [4, 18]: 0% | Test C rating (% disease control) [5, 19]: 0% | Test J rating (% disease control) [6, 20]: 0% | Test B rating (% disease control) [7, 21]: 98%

COc1cc(F)c(-c2c(C)nn(C)c2Oc2ccc(C)c(C)c2)c(F)c1 [compound 210]
Test H rating (% disease control) [1, 8]: 99% | Test I rating (% disease control) [2, 9]: 94% | Test G rating (% disease control) [3, 10]: 100% | Test F rating (% disease control) [4, 11]: 0% | Test C rating (% disease control) [5, 12]: 0% | Test J rating (% disease control) [6, 13]: 99% | Test B rating (% disease control) [7, 14]: 0%

Cc1nn(C)c(Oc2ccc(Cl)cc2Cl)c1-c1c(F)cc(F)cc1F [compound 38]
Test H rating (% disease control) [1, 15]: 0% | Test I rating (% disease control) [2, 16]: 99% | Test G rating (% disease control) [3, 17]: 97% | Test F rating (% disease control) [4, 18]: 0% | Test C rating (% disease control) [5, 19]: 9% | Test J rating (% disease control) [6, 20]: 99% | Test B rating (% disease control) [7, 21]: 99%

Cc1nn(C)c(Nc2ccc(F)cc2Cl)c1-c1ccccc1C(F)(F)F [compound 236]
Test H rating (% disease control) [1, 8]: 0% | Test I rating (% disease control) [2, 9]: 68% | Test G rating (% disease control) [3, 10]: 96% | Test F rating (% disease control) [4, 11]: 0% | Test C rating (% disease control) [5, 12]: 0% | Test J rating (% disease control) [6, 13]: 97% | Test B rating (% disease control) [7, 14]: 97%

Cc1nn(C)c(Nc2cc(F)c(F)cc2F)c1-c1c(F)cc(C#N)cc1F [compound 138]
Test H rating (% disease control) [1, 15]: 38% | Test I rating (% disease control) [2, 16]: 100% | Test G rating (% disease control) [3, 17]: 99% | Test F rating (% disease control) [4, 18]: 84% | Test C rating (% disease control) [5, 19]: 96% | Test J rating (% disease control) [6, 20]: 98% | Test B rating (% disease control) [7, 21]: 99%
